Experimental data taken from ChEMBL document CHEMBL1201862, “PubChem BioAssay data set” (2004).
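Following 48 hours of exposure in 96-well plates, responses at five concentrations were used to interpolate endpoints linearly. The concentration for 50% growth inhibition is given as GI50.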 Activity calls are given as the source filed them. No stated cut-off is given here; in the data, active = GI50 up to about 1.1 µM and inactive = higher.

Assays:
Experiment in all cases: NCI tumour cell line growth inhibition, 48 h
[1] = test system: 786-0
[2] = test system: A498
[3] = test system: A549
[4] = test system: ACHN
[5] = test system: CAKI-1
[6] = test system: COLO 205
[7] = test system: DLD-1
[8] = test system: DMS-114
[9] = test system: DMS-273
[10] = test system: EKVX
[11] = test system: HCT-116
[12] = test system: HOP-18
[13] = test system: HOP-62
[14] = test system: HOP-92
[15] = test system: HT-29
[16] = test system: IGROV-1
[17] = test system: KM-20L2
[18] = test system: KM12
[19] = test system: LOX IMVI
[20] = test system: LXFL 529
[21] = test system: M14
[22] = test system: M19-MEL
[23] = test system: MOLT-4
[24] = test system: Malme-3M
[25] = test system: NCI-H226
[26] = test system: NCI-H23
[27] = test system: NCI-H460
[28] = test system: NCI-H522
[29] = test system: OVCAR-3
[30] = test system: OVCAR-4
[31] = test system: OVCAR-5
[32] = test system: OVCAR-8
[33] = test system: RPMI-8226
[34] = test system: RXF 393
[35] = test system: SF-268
[36] = test system: SF-295
[37] = test system: SF-539
[38] = test system: SK-MEL-28
[39] = test system: SK-MEL-2
[40] = test system: SK-MEL-5
[41] = test system: SK-OV-3
[42] = test system: SN12C
[43] = test system: SNB-19
[44] = test system: SNB-75
[45] = test system: SNB-78
[46] = test system: SR
[47] = test system: SW-620
[48] = test system: TK-10
[49] = test system: U-251
[50] = test system: UACC-257
[51] = test system: UACC-62
[52] = test system: UO-31
[53] = test system: XF498
[54] = test system: CCRF-CEM
[55] = test system: HCC 2998
[56] = test system: HCT-15
[57] = test system: HL-60
[58] = test system: K562
[59] = test system: RXF 631

C=C1CC2CC(O)CC(C1)C2 (stereo not given)
GI50 [1]: > 100 µM (inactive) | GI50 [2]: > 100 µM (inactive) | GI50 [3]: > 100 µM (inactive) | GI50 [4]: > 100 µM (inactive) | GI50 [5]: > 100 µM (inactive) | GI50 [6]: > 100 µM (inactive) | GI50 [7]: > 100 µM (inactive) | GI50 [8]: > 100 µM (inactive) | GI50 [9]: > 100 µM (inactive) | GI50 [10]: > 100 µM (inactive) | GI50 [11]: > 100 µM (inactive) | GI50 [12]: > 100 µM (inactive) | GI50 [13]: > 100 µM (inactive) | GI50 [14]: > 100 µM (inactive) | GI50 [15]: > 100 µM (inactive) | GI50 [16]: > 100 µM (inactive) | GI50 [17]: > 100 µM (inactive) | GI50 [18]: > 100 µM (inactive) | GI50 [19]: > 100 µM (inactive) | GI50 [20]: > 100 µM (inactive) | GI50 [21]: > 100 µM (inactive) | GI50 [22]: > 100 µM (inactive) | GI50 [23]: 78.2 µM (inactive) | GI50 [24]: > 100 µM (inactive) | GI50 [25]: > 100 µM (inactive) | GI50 [26]: > 100 µM (inactive) | GI50 [27]: > 100 µM (inactive) | GI50 [28]: > 100 µM (inactive) | GI50 [29]: > 100 µM (inactive) | GI50 [30]: > 100 µM (inactive) | GI50 [31]: > 100 µM (inactive) | GI50 [32]: > 100 µM (inactive) | GI50 [33]: 32.4 µM (inactive) | GI50 [34]: > 100 µM (inactive) | GI50 [35]: > 100 µM (inactive) | GI50 [36]: > 100 µM (inactive) | GI50 [37]: > 100 µM (inactive) | GI50 [38]: > 100 µM (inactive) | GI50 [39]: > 100 µM (inactive) | GI50 [40]: > 100 µM (inactive) | GI50 [41]: > 100 µM (inactive) | GI50 [42]: > 100 µM (inactive) | GI50 [43]: > 100 µM (inactive) | GI50 [44]: > 100 µM (inactive) | GI50 [45]: > 100 µM (inactive) | GI50 [46]: 93.5 µM (inactive) | GI50 [47]: > 100 µM (inactive) | GI50 [48]: > 100 µM (inactive) | GI50 [49]: > 100 µM (inactive) | GI50 [50]: > 100 µM (inactive) | GI50 [51]: > 100 µM (inactive) | GI50 [52]: > 100 µM (inactive) | GI50 [53]: > 100 µM (inactive)

O=C(O)CCc1coc2ccc(O)cc12
GI50 [1]: > 100 µM (inactive) | GI50 [2]: > 100 µM (inactive) | GI50 [3]: > 100 µM (inactive) | GI50 [4]: > 100 µM (inactive) | GI50 [5]: > 100 µM (inactive) | GI50 [54]: > 100 µM (inactive) | GI50 [6]: > 100 µM (inactive) | GI50 [7]: > 100 µM (inactive) | GI50 [8]: > 100 µM (inactive) | GI50 [9]: > 100 µM (inactive) | GI50 [10]: > 100 µM (inactive) | GI50 [55]: > 100 µM (inactive) | GI50 [11]: > 100 µM (inactive) | GI50 [56]: > 100 µM | GI50 [57]: > 100 µM (inactive) | GI50 [12]: > 100 µM (inactive) | GI50 [13]: > 100 µM (inactive) | GI50 [14]: 75.7 µM (inactive) | GI50 [15]: > 100 µM (inactive) | GI50 [16]: > 100 µM (inactive) | GI50 [58]: > 100 µM (inactive) | GI50 [17]: > 100 µM (inactive) | GI50 [19]: > 100 µM (inactive) | GI50 [20]: > 100 µM (inactive) | GI50 [21]: > 100 µM (inactive) | GI50 [22]: > 100 µM (inactive) | GI50 [23]: > 100 µM (inactive) | GI50 [26]: > 100 µM (inactive) | GI50 [27]: > 100 µM (inactive) | GI50 [29]: > 100 µM (inactive) | GI50 [30]: > 100 µM (inactive) | GI50 [32]: > 100 µM (inactive) | GI50 [33]: > 100 µM (inactive) | GI50 [34]: > 100 µM (inactive) | GI50 [36]: > 100 µM (inactive) | GI50 [37]: > 100 µM (inactive) | GI50 [38]: > 100 µM (inactive) | GI50 [40]: > 100 µM (inactive) | GI50 [41]: > 100 µM (inactive) | GI50 [42]: > 100 µM (inactive) | GI50 [43]: > 100 µM (inactive) | GI50 [44]: > 100 µM (inactive) | GI50 [45]: > 100 µM (inactive) | GI50 [47]: > 100 µM (inactive) | GI50 [48]: > 100 µM (inactive) | GI50 [49]: > 100 µM (inactive) | GI50 [50]: > 100 µM (inactive) | GI50 [51]: > 100 µM (inactive) | GI50 [53]: > 100 µM (inactive)

CCOC(=O)/C(C#N)=C/c1[nH]c(C(=O)OCc2ccccc2)c(C)c1C
GI50 [1]: > 100 µM (inactive) | GI50 [3]: > 100 µM (inactive) | GI50 [4]: > 100 µM (inactive) | GI50 [5]: > 100 µM (inactive) | GI50 [54]: > 100 µM (inactive) | GI50 [6]: > 100 µM (inactive) | GI50 [7]: > 100 µM (inactive) | GI50 [8]: > 100 µM (inactive) | GI50 [9]: > 100 µM (inactive) | GI50 [10]: > 100 µM (inactive) | GI50 [55]: > 100 µM (inactive) | GI50 [56]: > 100 µM | GI50 [57]: > 100 µM (inactive) | GI50 [12]: > 100 µM (inactive) | GI50 [13]: > 100 µM (inactive) | GI50 [14]: 78.9 µM (inactive) | GI50 [15]: > 100 µM (inactive) | GI50 [16]: > 100 µM (inactive) | GI50 [58]: > 100 µM (inactive) | GI50 [17]: > 100 µM (inactive) | GI50 [18]: > 100 µM (inactive) | GI50 [19]: > 100 µM (inactive) | GI50 [20]: > 100 µM (inactive) | GI50 [21]: > 100 µM (inactive) | GI50 [22]: > 100 µM (inactive) | GI50 [23]: > 100 µM (inactive) | GI50 [24]: > 100 µM (inactive) | GI50 [26]: > 100 µM (inactive) | GI50 [27]: > 100 µM (inactive) | GI50 [28]: > 100 µM (inactive) | GI50 [29]: > 100 µM (inactive) | GI50 [30]: > 100 µM (inactive) | GI50 [31]: > 100 µM (inactive) | GI50 [32]: > 100 µM (inactive) | GI50 [33]: > 100 µM (inactive) | GI50 [34]: > 100 µM (inactive) | GI50 [59]: > 100 µM (inactive) | GI50 [35]: > 100 µM (inactive) | GI50 [36]: > 100 µM (inactive) | GI50 [37]: > 100 µM (inactive) | GI50 [38]: > 100 µM (inactive) | GI50 [39]: > 100 µM (inactive) | GI50 [40]: 30.3 µM (inactive) | GI50 [41]: > 100 µM (inactive) | GI50 [42]: > 100 µM (inactive) | GI50 [43]: > 100 µM (inactive) | GI50 [44]: > 100 µM (inactive) | GI50 [47]: > 100 µM (inactive) | GI50 [48]: > 100 µM (inactive) | GI50 [49]: > 100 µM (inactive) | GI50 [50]: > 100 µM (inactive) | GI50 [51]: > 100 µM (inactive) | GI50 [52]: > 100 µM (inactive)
